Experimental findings from ChEMBL document CHEMBL1134141, “Diaminopurine-acridine heterodimers for specific recognition of abasic site containing DNA. Influence on the biological activity of the position of the linker on the purine ring” (Bioorg Med Chem Lett, 2001) are described below.

Bounds are passed on as bounds.

One test deals with L1210. Kind of test: The compound was evaluated for cytotoxicity against L1210 cell line. The format is functional, cell-based. The settings on record: Mus musculus.
The test system of test [1] is A549. As to the kind of experiment: The compound was evaluated for cytotoxicity against A549 cell line. The test is classed as functional, cell-based. The settings on record: Homo sapiens.
Test [2] deals with A549. Kind of test: Cytotoxicity of compound in synergy in BCNU (10 uM) against A549 cell line. The format is functional, Homo sapiens.
For test [3], the system named is A549. As to the kind of experiment: Cytotoxicity of compound in synergy in 94% BCNU (10 uM) against A549 cell line. The format is functional, Homo sapiens.

As usually defined, the IC50 is the point on the concentration scale where inhibition reaches its midpoint. A high value points to weaker potency in that assay. Regarding `COc1ccc2nc3cc(Cl)ccc3c(NCCCC/N=C(\N)NCCCNc3nc(N)c4[nH]cnc4n3)c2c1`, the concentration for half-maximal inhibition (IC50) in the test with L1210 was 36 µM; in the test on A549 [1] it was 5 µM.
Regarding `COc1ccc2nc3cc(Cl)ccc3c(NCCCC/N=C(\N)NCCCNc3[nH]c(N)nc4ncnc3-4)c2c1`, the figures for the 50% inhibitory concentration (IC50) in the test on L1210 and in the test with A549 [1] were greater than 100 µM and 5 µM, respectively.
As to `COc1ccc2nc3cc(Cl)ccc3c(NCCCC/N=C(\N)NCCCn3cnc4c(N)nc(N)nc43)c2c1`, the IC50 was 60 µM with L1210 and 6.5 µM in the test on A549 [1]. Also, the Synergy in the test with A549 [2] worked out at 16%.
In the case of `COc1ccc2nc3cc(Cl)ccc3c(NCCCN(CCCN(CCn3cnc4c(N)ncnc43)C(=N)N)C(=N)N)c2c1`, the values for the IC50 with L1210 and with A549 [1] were 33 µM and 10 µM, respectively. Further, in the test on A549 [3], the Synergy was 94%.
